We go through nine compounds from PubChem BioAssay (NCI).

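Grown in 96-well plates, cells were treated for 48 hours with each compound at five concentrations. Insufficient inhibition: endpoint recorded as highest concentration tested. GI50: concentration for 50% inhibition of growth. TGI is the concentration that stops growth completely.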 *1 amine or outer side, *2 acyl side, *3 side chain or, on linkers, in order; H or OH if unused. Where a SMILES comes first, the peptide text is derived from it. Bridges are numbered along the chain shown (N, C = ends). [ ]: non-standard residue; d: D form. The star is where a group is joined. Phe(3-Me) = Cc1cccc(C[C@H](N)C(=O)O)c1; NH(4-Cl-2-F-phenyl) = Fc1cc(Cl)ccc1N*; Pro(4R-Me) = C[C@H]1CN[C@H](C(=O)O)C1; Hyp = O=C(O)[C@@H]1C[C@@H](O)CN1; aThr = C[C@H](O)[C@H](N)C(=O)O; Pip = O=C(O)[C@@H]1CCCCN1; CO = O=C([*:1])[*:2]

Some test systems named below: NCI/ADR-RES ovarian; SF-539 CNS; RPMI-8226 leukemia; SN12C renal; NCI-H460 lung; SNB-19 CNS; OVCAR-4 ovarian; HS 578T breast.
Common to all, as to assay: inhibition of tumour cell growth, NCI panel, 48 h

As for `COc1cc(-c2cn(-c3ccc(Cl)cc3)c(=O)[nH]2)cc(OC)c1OC`, the GI50 in the assay on NCI/ADR-RES ovarian, with SF-539 CNS, in the assay with RPMI-8226 leukemia, with SN12C renal, in the assay with NCI-H460 lung and in the assay with SNB-19 CNS was over 100 µM in each case. The GI50 in the assay with OVCAR-4 ovarian and in the assay with HS 578T breast was over 100 µM each time. For the same compound, the TGI in the assay on NCI/ADR-RES ovarian, with SF-539 CNS, with RPMI-8226 leukemia, in the assay with SN12C renal, in the assay with NCI-H460 lung and in the assay with SNB-19 CNS was over 100 µM each time. For the same compound, the TGI in the assay on OVCAR-4 ovarian and in the assay on HS 578T breast was over 100 µM throughout.
In the case of `COc1cc2c(OC)c(c1)CCCC1=CC(=O)C=C(CCC2)C1=O`, the TGI with NCI/ADR-RES ovarian was over 65.7 µM; with SF-539 CNS, over 69.4 µM; with RPMI-8226 leukemia it was 25.9 µM; with SN12C renal, over 31.6 µM; with NCI-H460 lung it was over 100 µM; with SNB-19 CNS, over 100 µM. Moreover, the TGI is 31.1 µM in the assay on OVCAR-4 ovarian and over 100 µM in the assay on HS 578T breast.
On to `COc1cc(-c2cc(-c3nc4ccccc4[nH]3)[nH]n2)cc(OC)c1OC`, for which the GI50 is 2.88 µM with NCI/ADR-RES ovarian; 5.11 µM in the assay on SF-539 CNS; 1.2 µM in the assay on RPMI-8226 leukemia; 3.91 µM in the assay with SN12C renal; 3.64 µM with NCI-H460 lung; 17.8 µM in the assay with SNB-19 CNS. Also, the GI50 was 1.26 µM with OVCAR-4 ovarian and 6.89 µM with HS 578T breast. Moreover, the TGI was 8.49 µM with NCI/ADR-RES ovarian; 18.9 µM in the assay with SF-539 CNS; 4.16 µM in the assay on RPMI-8226 leukemia; 20.4 µM in the assay with SN12C renal; 21.5 µM with NCI-H460 lung; over 100 µM in the assay on SNB-19 CNS. The TGI with OVCAR-4 ovarian is 7.03 µM; with HS 578T breast it was over 100 µM.
On to `CN1CCN(Cc2ccc(NC(=O)c3[nH]ncc3Nc3ncnc4c3CCC4)cc2)CC1`, for which the GI50 in the assay on NCI/ADR-RES ovarian was 6.17 µM; with SF-539 CNS it was 0.52 µM; in the assay with RPMI-8226 leukemia, 2.82 µM; with SN12C renal it was 1.01 µM; with NCI-H460 lung, 1.87 µM; in the assay with SNB-19 CNS it was 2.87 µM. The GI50 in the assay on OVCAR-4 ovarian is 1.49 µM; with HS 578T breast, 0.705 µM. The TGI in the assay with NCI/ADR-RES ovarian amounted to 45.1 µM; with SF-539 CNS, 2.61 µM; in the assay with RPMI-8226 leukemia, 7.39 µM; with SN12C renal, 20.2 µM; in the assay on NCI-H460 lung, 10.6 µM; in the assay on SNB-19 CNS, 14.8 µM. In addition, the results for the TGI in the assay on OVCAR-4 ovarian and in the assay with HS 578T breast were 6.67 µM and 6.28 µM, respectively.
On to `C#CC[C@H](c1nc2cc(Cl)ccc2c(=O)n1Nc1ccccc1)N(CCCN)C(=O)c1cccc(Cl)c1F`, for which the GI50 was 14.2 µM with NCI/ADR-RES ovarian; 0.183 µM in the assay with SF-539 CNS; 0.131 µM in the assay on RPMI-8226 leukemia; 0.205 µM with SN12C renal; 0.161 µM with NCI-H460 lung; 0.52 µM in the assay on SNB-19 CNS. Moreover, the GI50 with OVCAR-4 ovarian is 1.16 µM; with HS 578T breast, 0.162 µM. Also, the TGI with NCI/ADR-RES ovarian worked out at 30 µM; with SF-539 CNS, 0.65 µM; in the assay on RPMI-8226 leukemia, 1.16 µM; with SN12C renal, 1.98 µM; with NCI-H460 lung it was 1.31 µM; with SNB-19 CNS, 7.85 µM. The TGI in the assay on OVCAR-4 ovarian is 2.54 µM; with HS 578T breast, 1.19 µM.
Take `CCc1ccc(CCC(=O)Nc2ncc(Cc3ccccc3)s2)o1`: the GI50 is 2.39 µM in the assay on NCI/ADR-RES ovarian; 1.67 µM in the assay on SF-539 CNS; 2.61 µM in the assay with RPMI-8226 leukemia; 4.42 µM in the assay with SN12C renal; 3.06 µM in the assay with NCI-H460 lung; 3.92 µM in the assay on SNB-19 CNS. For the same compound, the GI50 is 27.8 µM in the assay with OVCAR-4 ovarian and 2.29 µM in the assay with HS 578T breast. Moreover, the TGI in the assay with NCI/ADR-RES ovarian is over 100 µM; with SF-539 CNS, 4.46 µM; in the assay with RPMI-8226 leukemia it was over 100 µM; in the assay on SN12C renal, over 100 µM; in the assay with NCI-H460 lung, over 100 µM; in the assay on SNB-19 CNS, over 100 µM. Further, the TGI with OVCAR-4 ovarian and in the assay on HS 578T breast was over 100 µM in each case.
Turning to `O=C1C(Cl)=C(N2CCOCC2)C(=O)c2ccccc21`, the GI50 is 3.11 µM with NCI/ADR-RES ovarian; 20.1 µM in the assay with SF-539 CNS; 2.63 µM in the assay with RPMI-8226 leukemia; 10.7 µM in the assay with SN12C renal; 20.2 µM in the assay on NCI-H460 lung; 16.1 µM in the assay on SNB-19 CNS. Besides, the GI50 in the assay on OVCAR-4 ovarian is 1.61 µM; in the assay on HS 578T breast it was 20.8 µM. Further, the TGI with NCI/ADR-RES ovarian is 13 µM; in the assay on SF-539 CNS it was 34.6 µM; with RPMI-8226 leukemia, 7.87 µM; in the assay with SN12C renal it was 23.1 µM; with NCI-H460 lung it was 42.8 µM; with SNB-19 CNS it was 30.1 µM. Further, the TGI in the assay with OVCAR-4 ovarian was 3.02 µM; with HS 578T breast it was 69.6 µM.
Take `Cc1cccc(C[C@H](NC(=O)Nc2ccc(Cl)cc2F)C(=O)N[C@@H]2C(=O)N3C[C@H](O)C[C@H]3C(=O)N3CCCC[C@H]3C(=O)N[C@@H](C)C(=O)N3C[C@H](C)C[C@H]3C(=O)O[C@H]2C)c1` ({NH(4-Cl-2-F-phenyl)-CO}-[Phe(3-Me)][aThr][Hyp][Pip]A[Pro(4R-Me)]; ester 2-C): the GI50 is 11 µM in the assay on NCI/ADR-RES ovarian; 0.733 µM in the assay with SF-539 CNS; 0.128 µM with RPMI-8226 leukemia; 0.393 µM with SN12C renal; 0.398 µM with NCI-H460 lung; 0.381 µM in the assay with SNB-19 CNS. The figures for the GI50 in the assay on OVCAR-4 ovarian and in the assay with HS 578T breast were 0.324 µM and 0.455 µM, respectively. For the same compound, the TGI was 33.4 µM in the assay on NCI/ADR-RES ovarian; 2.29 µM in the assay on SF-539 CNS; 1.63 µM in the assay on RPMI-8226 leukemia; 4.6 µM with SN12C renal; 2.46 µM in the assay on NCI-H460 lung; 11.3 µM in the assay with SNB-19 CNS. Besides, the results for the TGI with OVCAR-4 ovarian and with HS 578T breast were 2.68 µM and 3.58 µM, respectively.
For the compound `O=C(Nc1ccncc1)C(=O)c1cn(S(=O)(=O)c2ccccc2F)c2ccccc12`, the GI50 in the assay on NCI/ADR-RES ovarian is 0.579 µM; with SF-539 CNS, 1.19 µM; in the assay with RPMI-8226 leukemia, 2.54 µM; with SN12C renal it was 2.65 µM; in the assay on NCI-H460 lung, 6.75 µM; in the assay with SNB-19 CNS it was 7.17 µM. Moreover, the figures for the GI50 in the assay with OVCAR-4 ovarian and in the assay on HS 578T breast were 3.59 µM and 5.27 µM, respectively. In addition, the TGI with NCI/ADR-RES ovarian is over 100 µM; with SF-539 CNS it was 7.88 µM; with RPMI-8226 leukemia, over 32.7 µM; with SN12C renal, over 90.6 µM; in the assay on NCI-H460 lung it was over 100 µM; in the assay on SNB-19 CNS, over 80.4 µM. The TGI with OVCAR-4 ovarian and in the assay with HS 578T breast was over 100 µM each time.
